Here are results for one molecule from patent US11931374B2, “Adenosine receptor modulators for the treatment of circadian rhythm disorders” (OXFORD UNIVERSITY INNOVATION LIMITED, priority 2016, dated 2024).

One test deals with CRE::Luc reporter. The experiment in a line: CRE-Luc luciferase assay in U2OS cells. The class given is cell-based. How it is done: At 60-80% confluence and >90% viability, the U2OS cells in the T-75 flask were washed twice with 6 ml phosphate-buffered saline (PBS) and subsequently treated with 4 ml of TrypLE™ Express trypsin replacement solution for 10 minutes. A Greiner Bio-One 96 Well Plate (white, TC treated), was then seeded at 8000 cells per well. Following 24 hours, the cells were transfected at 50-70% confluency with CRE-luc Vector generated in-house with Viafect transfection reagent at 1:4 ratio (100 ng DNA/well) following manufacturers recommendations.
24 hours after transfection, the medium in the 96 well plate was changed to a serum-free medium with 1 mM luciferin. The cells were then incubated in serum starvation conditions for 6-8 hours, this was optimised to yield the greatest signal strength and lowest noise when assayed with forskolin control. Following the incubation period, the CRE-Luc U2OS cells were treated with the appropriate drug and their luminescence values were measured after 6 hours in the BMG FLUOstar OPTIMA Microplate Reader. […] Unless stated otherwise, forskolin was used as a positive control, and 1% DMSO was used as a negative control.

The test system of another test is C57Bl/6 mice. The experiment in a line: Phase shifting of circadian activity by drug (running wheel). The class given is in vivo. The method, then: Animals were housed under a reversed 12:12 LD cycle (400 lux from white LED lamps) with food and water ad libitum. For phase-shifting studies, C57Bl/6 mice were maintained on running wheels in light tight chambers on a 12:12 LD cycle (400 lux from white LED lamps) and injected with drug at the indicated time points. The drugs were formulated in a vehicle consisting of 5% Koliphor-HS15 (Sigma-Aldrich, UK) 5% Cyclodextran (Sigma-Aldrich, UK) in 0.9% saline. This vehicle was warmed to 37° C. and the indicated drugs kept at a 100× stock in DMSO and mixed at the appropriate concentration to be administered at approximately 300 ul intraperitoneal injection (n=6 to 10). Where the time point of injection was in the dark, the procedure was conducted under dim red light. Where measuring phase-shifting, the mice were then placed in DD and allowed to free run for 14 days in DD, running wheel activity data was collected and analysed on Clocklab (Actimetrics, Wilmette, IL). For jet-lag studies, mice were maintained on running wheels in light tight chambers on a 12:12 LD cycle (400 lux from white LED lamps) and injected with drugs as above at ZT6 and the LD cycle was shifted 6 hours in advance. The onset of activity on each day was used to measure phase relative to the LD cycle.
Phase Shifting: C57Bl/6 male mice (80 days or older) were maintained on running wheels in light tight chambers on a 12:12 LD cycle (100 lux from white LED lamps) on stable entrainment, were released in complete darkness. At set times as indicated in the experiments, the animals received an intraperitoneal injection (300 ul) of drug constituted in sterile saline with 5% Cyclodextrin (Sigma-Aldrich) and 5% Koliphor (Sigma-Aldrich) and then allowed to free run in DD, running wheel activity data were collected and analysed on Clocklab (Actimetrics, Wilmette, IL).

The test system of test [1] is STAR-PROM plasmid library. The experiment in a line: STAR-PROM transcription factor screening in U2OS cells. The test is classed as cell-based. How it is done:
This was conducted as previously reported in Gerber et al., Cell. […] Briefly, U2OS cells were cultured in 6-well plates and transfected with 1 ug of the STAR-PROM plasmid library (library structure as in above reference). RNA was extracted at set time points and sequenced for the barcoded luciferase constructs and analysed with Galaxy (https://use.galaxy.org).

A further test has as its system Per1/2. As to the kind of experiment: Sleep deprivation, Per1/2 expression within the SCN. The test is classed as in vivo. The following applies: sleep deprivation decreases Per1/2 expression.
The next test concerns SCN electrical activity. The experiment in a line: In vivo recording from SCN electrode implanted animals. The note with it: intraperitoneal injection, 5 mg/kg.
A further test concerns Per2. The experiment in a line: Per2 mRNA levels in U2OS cells by qPCR. The class given is cell-based. The method, then: (§1) Total RNA was extracted using the microRNeasy column method (Qiagen, Hilden, Germany). Quality and quantity of RNA were measured using an Agilent Bioanalyzer and a Nanodrop1000 (Thermo Fisher Scientific, Waltham, MA USA), respectively.
(§2) RNA samples were prepared as described for microarray hybridisation. cDNA was synthesized with a qScript cDNA synthesis kit (Quanta Biosciences, Gaithersburg, MD), and quantitative PCR (qPCR) was conducted with Sybr green I and an SDS7700 thermal cycler (Applied Biosystems, Foster City, CA). Relative quantification of transcript levels was done as described previously (Peirson et al., Nucleic Acids Res. 2003 Jul. 15; 31(14):e73.). The geometric mean of a minimum of three housekeeping genes was used for normalization (Gapdh, ActB, GusB and Rps9 for example).
Cells from the U2OS (HTB-96) line were obtained, tested and identified. The cells were cultured in T-75 flasks, in Dulbecco's modified Eagle medium (DMEM) supplemented with 10% foetal bovine serum (FBS) and 1% penicillin-streptomycin (P/S) at 37° C. in a humidified atmosphere at 5% CO2. The cells were subcultured every 2 to 4 days in a 1:2 to 1:6 ratio, in accordance with the ATCC recommendations. The cells were counted using a haemocytometer, and their viability in a culture was maintained at above 95%, measured with a Presto Blue exclusion assay according to the manufacturer's specifications. Cells were transfected with siRNAs (typically at 50 nM concentrations, sequences as previously listed), the CRE::Luc (pGL4.29[luc2P/CRE/Hygro] Vector, encoding Luc2P […] under the control of a strong cAMP response element (CRE) promoter containing 3 CRE elements within its sequence; Promega) reporter vector or cAMP-GLOSensor plasmid (Promega) as per manufacturer's instructions using either Lipofectamine RNAimax (Invitrogen) or Lipofectamine3000 (Invitrogen).

In another test the test system is Fos. As to the kind of experiment: Fos mRNA after drug treatment. The class given is cell-based. The note with it: 10 uM. How it is done:
as §1, §2

Consider `Nc1nc(-c2ccccc2)c2c(n1)-c1cc(OCCN3CCOCC3)ccc1C2=O` [JNJ40255293, 2-amino-8-[2-(4-morpholinyl)ethoxy]-4-phenyl-5H-indeno[1,2-d]pyrimidin-5-one], for which, in the test on CRE::Luc reporter, the “CREB-driven transcription (CRE::Luc reporter)” value is on record as “does not increase signals from the CRE::Luc reporter”. The “phase shift of circadian activity” value is “induced a phase advance” in the test on C57Bl/6 mice (5 mg/kg intraperitoneal, 6 h after the onset of light (ZT6), then constant dark) and “resulted in a phase delay” in the test on C57Bl/6 mice (5 mg/kg, administered at CT16, constant dark). Also, the “phase shifts compared with other agents (FIG. 9A)” value with C57Bl/6 mice (difference between onset pre and post injection) is reported as “causes the largest phase shifts”. In addition, the “clones with significantly increased reporter signal” value in test [1] (BC-STARPROM, 30 uM) was 8 clones. The “response of clone3 reporter” value in test [1] (isolated clone3) is listed as “responded”. For the same molecule, the “Per1/2 expression within the SCN” value in the test on Per1/2 was “reversed”. Besides, the “phase of SCN electrical activity” value with SCN electrical activity was “marked phase shift”. Besides, the Per2 transcription entry in the test with Per2 (4 h post-drug treatment) is listed as “significantly increased”. Also, in the test with Per2 (U2OS cell cultures, 10 uM), the “Per2 mRNA” value is reported as “Robust increases”. Also, the “Per2 mRNA levels” value in the test with Per2 (U2OS cells, 30 uM) is reported as “elevated”. For the same molecule, in the test with Per2 (U2OS cells, qPCR, concentration not given), the “Per2 mRNA levels / expression” value was “induce the expression of Per1 and Per2”. The “Fos mRNA” value with Fos is recorded as “Upregulation”.
